# Reference: patent US20100254942A1, “HEPATITIS C ANTIVIRAL COMPOSITIONS AND METHODS” (BIOTRON LIMITED, priority 2007, published 2010)
# pEC50, pIC50: −log10 of the molar value. Entries after “also recorded” stand apart in the source; their conditions may differ. Read-outs that look alike come from different tables or passages of the source.
# How the values were obtained:
# GBV-B = GBV-B replication in primary marmoset hepatocytes (viral RNA by real-time RT-PCR); type: cell-based
# Source text: GBV-B is the most closely related flavivirus to HCV, sharing 27-33% nucleotide sequence identity and 28% amino acid similarity over the complete polypeptide sequence. This virus represents an excellent surrogate system for HCV because it infects small New World primates and replicates efficiently in vitro in primary marmoset hepatocyte (PMH) cultures. The GBV-B homologue of HCV p7 is called p13. It is shown herein that a synthetic peptide corresponding to the two C-terminal transmembrane helices of p13 (which share the greatest homology to p7) forms a cation selective ion channel that, like the p7 channel, is blocked by amantadine (Premkumar et al., 2006). […] These observations confirm that the two homologous channels share similar, but not identical, structural features.
# Selected BIT compounds—identified by bacterial assay screening for inhibitors of HCV p7—were tested for ability to inhibit GBV-B replication in primary marmoset hepatocytes (see FIG. 1). The hepatocytes were inoculated 3-days after plating with 10× TCID50 of GBV-B positive marmoset serum. […] was adsorbed for two hours, and then the cells were washed three times and cultured for two days in fresh serum-free medium (SFM) supplemented with hormones and growth factors. Virus released to the culture supernatant was measured as viral RNA copy number, as determined by real-time RT-PCR. […]
# [1] = system: bovine viral diarrhea virus (BVDV) strain NADL; assay: BVDV CPE-inhibition assay in MDBK cells; type: cell-based; settings: for pEC50: read-out: EC50
# Procedure: The antiviral evaluation of selected BIT compounds against BVDV was outsourced to Southern Research Institute (SRI), Fredrick Md. USA. A simple cytoprotection format is used in which the antiviral efficacy of the compounds is assessed by their ability to reduce the cytopathic effect of BVDV infection in Madin-Darby bovine kidney cells (Buckwold et al., 2003)
# (§1) A virus-induced cytopathogenic effects (CPE)-inhibition assay procedure was employed to evaluate compounds for antiviral activity against bovine viral diarrhea virus (BVDV) strain NADL, in Madin-Darby bovine kidney (MDBK) cells passaged in T-75 flasks (1, 2). Antiviral assays were designed to test six half-log concentrations of each compound in triplicate against the challenge virus. Cell controls (CC) containing medium alone, virus-infected cell controls (VC) containing medium and virus, drug cytotoxicity controls containing medium and each drug concentration, reagent controls containing culture medium only (no cells), and drug colorimetric controls containing drug and medium (no cells) are run simultaneously with the test samples. Human interferon-α 2b was used as a positive control compound. On the day preceding the assay, the cells were trypsinized, pelleted, counted and resuspended at 1×10^4/well in tissue culture medium in 96-well flat bottom tissue culture plates in a volume of 100 μl per well. One day following plating of cells, the wells were washed and the medium was replaced with complete medium (2% serum) containing various concentrations of test compound diluted in medium in a half-log series. A pre-titered aliquot of virus was removed from the freezer (−80° C.) just before each experiment. The virus was diluted into tissue culture medium such that the amount of virus added to each well would give complete cell killing at 6-7 days post-infection. The plates were incubated at 37° C. in a humidified atmosphere containing 5% CO2 until maximum CPE is observed in the untreated virus control cultures (˜day 7) Inhibition of CPE by the compound was determined using Cell Titer 96 (Promega). A colorimetric method for determining the number of viable cells was used. A computer program was utilized to calculate the percent of CPE reduction of the virus-infected wells and the percentage cell viability of uninfected drug control wells. […] A therapeutic (selectivity) index (TI50) for each active compound was determined by dividing the TC50 by the IC50.
# (§2) Drug cytotoxicity was measured separately in uninfected cells. Eleven BIT compounds were tested in the first experiment in which the compounds were added to the cells just prior to infection and were maintained throughout the entire experiment. Two of them, BIT225 and BIT314 returned sub-micromolar IC50 values (see Table 2 below).
# [2] = biological target: T1, HCV p7 ion channel protein (Hepatitis C virus genotype 1a, UniProt P27958); assay: Bacterial bioassay: growth of E. coli expressing HCV p7; type: cell-based; parameters: scale not given here; settings: cumulative averaged scores; result above zero indicates potential anti-viral activity
# T1 construct: codons were optimised for expression of the p7 protein in E. coli; expressed in transfected cells; host or cells: E. coli carrying plasmid pPLp7 (pPL451 backbone, temperature-inducible)
# Source text: The bacterial bioassay method used in the present example to test the anti-viral activity of the compounds against different viral targets was described in detail in PCT/2004/000866, incorporated in its entirety herein by reference. This assay is used in conjunction with the GBV-B and BVDV assays described below, to ensure that all active compounds are identified, some of which are active in one or the other of the assays, while some compounds may be active in both assays.
# Briefly, the bacterial bio-assay for screening potential anti-HCV compounds is based on the HCV p7 ion channel protein. p7 is a small membrane protein encoded by HCV, which has a functional activity supporting viral growth and/or replication.
# The p7-encoding synthetic cDNA fragment cDp7.coli, in which codons were optimised for expression of the p7 protein in E. coli, was cloned into the expression plasmid pPL451, creating the vector pPLp7, in which p7 expression is temperature inducible, as described in detail in PCT/2004/000866. Inhibition of the growth of E. coli cells expressing p7 at 37° C. was observed as an indicator of p7 ion channel function dissipating the normal Na+gradient maintained by the bacterial cells. Halos of growth around a particular compound application site indicate that the compound has inhibited expression of the p7 ion channel activity that prevents growth in the absence of the compound.
# The positive controls were used in this assay to ensure that the assay was working rather than for comparison of relative activities of the compounds.
# [3] = system: Madin-Darby bovine kidney (MDBK) cells; assay: Drug cytotoxicity in uninfected MDBK cells; type: cell-based; settings: uninfected MDBK cells
# Source text: as §1, §2
# [4] = system: bovine viral diarrhea virus (BVDV) strain NADL; settings: well known from the literature; cited from earlier work
# T1 sequence (P27958 747-809): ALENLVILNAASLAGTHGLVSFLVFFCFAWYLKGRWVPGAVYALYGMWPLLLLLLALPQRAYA
compound,measurement,setting,value
"Cn1cc(-c2cccc3cc(C(=O)NC(=N)N)ccc23)cn1 [BIT225, 5-(1-methylpyrazol-4-yl)2-naphthoylguanidine]",Virus in the culture supernatant (viral RNA copy number),GBV-B; cells pre-treated with 20 μM,no virus was detected
same,Efficacy when compounds were added post-inoculation,GBV-B; post-treatment versus pre-treatment,reduced somewhat
same,IC50,"[1]; BVDV in MDBK cells, compound added just prior to infection and maintained, N/A = not achieved, read-out: IC50",530 nM
same,pEC50,"[1]; Bovine viral diarrhea virus isolates and strains, MDBK, drug tested individually against BVDV",6.50
same,pEC50,"[1]; Bovine viral diarrhea virus isolates and strains, MDBK, in the presence of 5 IU/ml IFNα, Hill slope constrained",7.04
same,pEC50,"[1]; Bovine viral diarrhea virus isolates and strains, MDBK, in the presence of 5 IU/ml IFNα, variable Hill slope",6.83
same,pEC50,"[1]; Bovine viral diarrhea virus isolates and strains, MDBK, in the presence of 10 IU/ml IFNα, Hill slope constrained",7.15
same,pEC50,"[1]; Bovine viral diarrhea virus isolates and strains, MDBK, in the presence of 10 IU/ml IFNα, variable Hill slope",6.90
same,inhibition at 0.031 µM,"[1]; Bovine viral diarrhea virus isolates and strains, MDBK, 31 nM BIT225 alone",~5%
same,pIC50,"[1]; Bovine viral diarrhea virus isolates and strains, MDBK, Table 2a, read-out: BVDV IC50",5.90
same,pIC50,"[1]; Bovine viral diarrhea virus isolates and strains, MDBK, subsequent repeat assay, read-out: IC50",6.48
same,IC50 values (in words),"[1]; first experiment, Table 2",sub-micromolar
same,Average Bacterial Assay Score HCV p7,[2],1.20
same,TC50,[3],11600 nM
"NC(=O)c1ncn([C@@H]2O[C@H](CO)[C@@H](O)[C@H]2O)n1 [Ribavirin, reference compound]",antiviral activity,[1]; 1.25 μg/ml Ribavirin alone,no antiviral activity
same,Antiviral activity on its own,"[1]; alone, range up to 20 μg/ml",only very little antiviral activity was detected; also recorded: no antiviral activity
same,activity against BVDV on its own,[4],very little activity
